Results taken from ChEMBL document CHEMBL1143305, “SAR and biological evaluation of analogues of a small molecule histone deacetylase inhibitor N-(2-aminophenyl)-4-((4-(pyridin-3-yl)pyrimidin-2-ylamino)methyl)benzamide (MGCD0103)” (Bioorg Med Chem Lett, 2009).
pEC50, pIC50: −log10 of the molar value. Activity calls are given as the source filed them. No cut-off for these calls is given here.

Legend:
T-24 = assay: Induction of histone H4 hyperacetylation in human T24 cells after 16 hrs by immunoblotting; type: functional, cell-based; conditions: for pEC50: T-24, 16 h
HMEC [1] = assay: Selectivity ratio of IC50 for HMEC to IC50 for human HCT116 cells
HCT-116 [2] = assay: Induction of p21WAF1/CIP1 expression in human HCT116 cells assessed as […] after 16 hrs by luciferase assay; type: functional, cell-based; conditions: for pEC50: HCT-116, 16 h
Histone deacetylase 1 = Histone deacetylase 1 (Homo sapiens, UniProt Q13547); assay: Inhibition of human recombinant HDAC1
Chain of Histone deacetylase 1 (Q13547 whole entry): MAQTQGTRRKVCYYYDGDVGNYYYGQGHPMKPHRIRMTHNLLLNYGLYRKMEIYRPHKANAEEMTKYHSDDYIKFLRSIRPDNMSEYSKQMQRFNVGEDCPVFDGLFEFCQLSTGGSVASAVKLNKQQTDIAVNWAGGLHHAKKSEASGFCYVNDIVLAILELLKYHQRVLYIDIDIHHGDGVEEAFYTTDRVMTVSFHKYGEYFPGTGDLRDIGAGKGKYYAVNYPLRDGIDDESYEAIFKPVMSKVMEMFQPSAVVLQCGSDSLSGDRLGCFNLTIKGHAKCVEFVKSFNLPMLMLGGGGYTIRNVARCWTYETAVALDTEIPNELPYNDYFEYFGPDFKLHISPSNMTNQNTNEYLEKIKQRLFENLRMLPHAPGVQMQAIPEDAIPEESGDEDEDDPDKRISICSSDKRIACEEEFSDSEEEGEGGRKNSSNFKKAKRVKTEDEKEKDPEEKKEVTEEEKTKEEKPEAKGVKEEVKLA

HCT-116 [3] = assay: cells; conditions: Homo sapiens
Description: (§1) Antiproliferative activity against human HCT116 cells by MTT assay

HMEC [4] = assay: Antiproliferative activity against HMEC by MTT assay; type: cell-based; conditions: Homo sapiens
HCT-116 [5] = assay: Induction of apoptosis in human HCT116 cells; type: functional, cell-based
HCT-116 [6] = conditions: Homo sapiens
Description: as §1

Row | Compound | pEC50 (T-24) | Ratio IC50 (HMEC [1]) | pEC50 (HCT-116 [2]) | pIC50 (Histone deacetylase 1) | pIC50 (HCT-116 [3]) | pIC50 (HMEC [4]) | Activity (HCT-116 [5]) | Activity (T-24) | Activity (HCT-116 [2]) | Activity (HCT-116 [6])
1 | CN(C)C(=O)c1ccc(-c2ccnc(NCc3ccc(C(=O)Nc4ccccc4N)cc3)n2)cn1 | 5.70 | >20 | 6.05 | 6.38 | 6.52 | < 4.30 | Active |  |  | 
2 | Nc1ccccc1NC(=O)c1ccc(/C=C/CNc2nccc(-c3cccnc3)n2)cc1 |  |  |  | 6.89 |  |  |  |  |  | 
3 | Nc1ccccc1NC(=O)c1ccc(CNc2nccc(-c3cnccn3)n2)cc1 | 6.00 | >30 | 6.22 | 6.72 | 6.52 | 4.64 |  |  |  | 
4 | CN1CCN(c2ccc(-c3ccnc(NCc4ccc(C(=O)Nc5ccccc5N)cc4)n3)cn2)CC1 |  | >20 | 6.70 | 7.10 | 6.70 | 5.30 | Active | inactive |  | 
5 | Nc1ccccc1NC(=O)c1ccc(Nc2nccc(-c3cccnc3)n2)cc1 |  |  |  | 5.70 | 5.70 |  |  |  |  | 
6 | Nc1ccccc1NC(=O)c1ccc(CNc2nccc(-c3ccc(OCCN4CCOCC4)cc3)n2)cc1 | > 6.00 | >30 | 7.00 | 7.10 | 7.00 | 5.10 |  |  |  | 
7 | COCOC(C)(C)c1ccc(-c2ccnc(NCc3ccc(C(=O)Nc4ccccc4N)cc3)n2)cn1 | 6.00 | >20 | 6.00 | 6.60 | 7.00 | 4.31 | Active |  |  | 
8 | CN(C)CCOc1cccc(-c2ccnc(NCc3ccc(C(=O)Nc4ccccc4N)cc3)n2)c1 | > 6.00 | >30 |  | 6.89 | 6.52 | 4.96 |  |  | inactive | 
9 | Nc1ccccc1NC(=O)c1ccc(CNc2cc(-c3cccnc3)ncn2)cc1 | > 6.00 | >15 | 6.30 | 7.15 | > 7.30 | 4.38 | Active |  |  | 
10 | Nc1ccccc1NC(=O)c1ccc(CNc2cncc(-c3cccnc3)n2)cc1 | 6.00 | >15 | 6.40 | 6.96 | 6.52 | 4.80 | Active |  |  | 
11 | N#Cc1ccc(-c2ccnc(NCc3ccc(C(=O)Nc4ccccc4N)cc3)n2)cn1 | 6.00 | >20 | 6.15 | 6.80 | 6.40 | < 4.30 | Active |  |  | 
12 | Nc1ccccc1NC(=O)c1ccc(CNc2nccc(-c3nccs3)n2)cc1 | > 6.00 | >30 | 6.30 | 6.85 |  | 4.85 |  |  |  | inactive
13 | CN(C)CCOc1ccc(-c2ccnc(NCc3ccc(C(=O)Nc4ccccc4N)cc3)n2)cc1 | > 6.00 | >30 | 7.00 | 6.92 | 7.05 | 5.00 |  |  |  | 
14 | CSc1ccc(-c2ccnc(NCc3ccc(C(=O)Nc4ccccc4N)cc3)n2)cn1 | 6.00 | >20 | 6.52 | 7.05 | 6.52 | 5.22 | Active |  |  | 
15 | O=C(Nc1ccccc1)c1ccc(CNc2nccc(-c3cccnc3)n2)cc1 |  |  |  | < 4.60 | < 4.30 |  |  |  |  | 
16 | CSc1nc(NCc2ccc(C(=O)Nc3ccccc3N)cc2)cc(-c2cccnc2)n1 | 6.00 |  | 6.22 | 6.60 | 7.00 | 4.89 |  |  |  | 

Row | Compound | pEC50 (T-24) | Ratio IC50 (HMEC [1]) | pEC50 (HCT-116 [2]) | pIC50 (Histone deacetylase 1) | pIC50 (HCT-116 [3]) | pIC50 (HMEC [4]) | Activity (HCT-116 [5]) | Activity (T-24) | Activity (HCT-116 [2]) | Activity (HCT-116 [6])
17 | Nc1cc(-c2cccnc2)nc(NCc2ccc(C(=O)Nc3ccccc3N)cc2)n1 | 6.00 |  | 6.70 | 6.77 | 6.70 | 4.85 |  |  |  | 
18 | Nc1ccccc1NC(=O)c1ccc(CNc2cccc(-c3cccnc3)c2)cc1 | > 6.00 | >15 | 6.22 | 7.05 | 6.52 | 5.30 | Active |  |  | 
19 | CC(C)(O)c1ccc(-c2ccnc(NCc3ccc(C(=O)Nc4ccccc4N)cc3)n2)cn1 | 5.70 | >20 | 6.22 | 6.64 | 7.00 | 4.42 | Active |  |  | 
20 | Nc1ccccc1NC(=O)c1ccc(CNc2nccc(-c3cccc(OCCN4CCOCC4)c3)n2)cc1 | 6.00 | >30 | 6.40 | 6.85 | 6.52 | 4.39 |  |  |  | 
21 | Nc1ccccc1NC(=O)c1ccc(CNc2nccc(-c3cc(CO)no3)n2)cc1 | 6.00 | >30 |  | 6.68 | 6.10 | < 4.30 |  |  | inactive | 
22 | Nc1ccccc1NC(=O)c1ccc(CNc2nccc(-c3ccc(C(=O)N4CCOCC4)nc3)n2)cc1 |  | >20 | 5.70 | 6.60 | 6.00 | 4.43 | Active | inactive |  | 
23 | Nc1ccccc1NC(=O)c1ccc(CNc2nccc(-c3ccc(CN4CCOCC4)cc3)n2)cc1 | 6.00 | >30 | 6.30 | 7.05 | 7.00 | 4.57 |  |  |  | 
24 | Nc1ccccc1NC(=O)c1ccc(CNc2nccc(-c3ccsc3)n2)cc1 | 5.52 | >30 | 6.52 | 7.15 | 7.15 | 5.15 |  |  |  | 
25 | Nc1ccccc1NC(=O)/C=C/c1ccc(CNc2nccc(-c3cccnc3)n2)cc1 |  |  |  | 5.92 | 5.70 |  |  |  |  | 
26 | Nc1ccccc1C(=O)Nc1ccc(CNc2nccc(-c3cccnc3)n2)cc1 |  |  |  | < 4.70 | 4.60 |  |  |  |  | 
27 | Nc1ccccc1NC(=O)c1ccc(CNc2ccnc(-c3cccnc3)n2)cc1 | > 6.00 |  | 6.22 | 6.70 | 6.40 | 4.96 | Active |  |  | 
28 | Nc1ccccc1NC(=O)c1ccc(CNc2nccc(-c3cccnc3)n2)cc1 [MOCETINOSTAT] | > 6.00 |  | 6.22 |  | 6.52 | 4.68 |  |  |  | 
29 | Nc1ccccc1NC(=O)c1cccc(CNc2nccc(-c3cccnc3)n2)c1 |  |  |  | < 4.70 | 4.37 |  |  |  |  | 
30 | Nc1ccccc1NC(=O)c1ccc(CNc2nccc(-c3ccc(N4CCOCC4)nc3)n2)cc1 | > 6.00 | >20 | 6.40 | 7.30 | > 7.30 | 5.30 | Active |  |  | 
31 | Nc1ccccc1NC(=O)c1ccc(CNc2cccc(-c3cccnc3)n2)cc1 | 6.00 |  | 6.22 | 6.74 | 6.22 | < 4.30 | Active |  |  | 
